The values that follow come from ChEMBL document CHEMBL1150243, “Lignan glycosides from Neoalsomitra integrifoliola” (2008).

Molecules are shown by their SMILES.

The assay in a line: Antiinflammatory activity against rat polymorphonuclear leucocytes assessed as inhibition of platelet activating factor-induced beta-glucuronidase release. The assay is classed as functional.

Turning to `C[C@@H]1C(=O)O[C@H]2[C@H](O)[C@@]34[C@H]5C[C@@H](C(C)(C)C)[C@]36[C@@H](OC(=O)[C@@H]6O)O[C@@]4(C(=O)O5)[C@@]12O` [GINKOLIDE B], the “inhibition (INH)” value came to 78.4%.
